# In patent EP0533350B1, “DNA encoding precursor interleukin 1B converting enzyme” (Merck & Co., Inc., priority 1991, dated 1993):
# Like-named read-outs stand apart in the source and are kept apart here. Where a SMILES comes first, the peptide text is derived from it. [ ]: non-standard residue; d: D form. The star is where a group is joined. Sta = CC(C)C[C@H](N)[C@@H](O)CC(=O)O; Isovaleryl = CC(C)CC(=O)*
# How the values were obtained:
# ICE [1] = molecular target: T1, ICE (Homo sapiens, UniProt P29466); assay: Protease inhibitor sensitivity of ICE: inhibitor added to THP.1 S-300, gel-based pre-IL-1β cleavage assay
# T1 sequence (P29466 120-297): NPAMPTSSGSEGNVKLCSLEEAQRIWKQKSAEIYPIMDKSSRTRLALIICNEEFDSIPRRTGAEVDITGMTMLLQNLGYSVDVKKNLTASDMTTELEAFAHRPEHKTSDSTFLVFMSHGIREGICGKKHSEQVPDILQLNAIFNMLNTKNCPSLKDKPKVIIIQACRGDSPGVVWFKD
# T1 sequence (P29466 317-404): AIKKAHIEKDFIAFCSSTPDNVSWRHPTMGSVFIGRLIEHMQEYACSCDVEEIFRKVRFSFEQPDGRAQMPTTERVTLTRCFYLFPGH
# recombinant ICE = molecular target: T2, recombinant ICE (Homo sapiens, UniProt P29466); assay: IL-1β precursor cleavage by lysates of COS-7 cells transfected with full-length ICE cDNA; type: biochemical; settings: lysates of COS-7 cells transfected with ICE cDNA
# T2 construct: transfection of full-length ICE cDNA, including the complete ORF of the 45 kDa ICE preprotein; expressed in transfected cells; host or cells: COS-7 cells, vector pSZ-9016 co-transfected with pX8TAT; detergent lysate
# T2 sequence (P29466 120-297 limits assumed): T1 sequence (P29466 120-297)
# T2 sequence (P29466 317-404 limits assumed): T1 sequence (P29466 317-404)
# Description: The expression of recombinant ICE was achieved by transfection of full-length ICE cDNA, including the complete ORF of the 45 kDa ICE preprotein (Fig. 23), into a mammalian host cell. The 1.6 kb EcoRI fragment containing the full length ICE cDNA was cloned into vector pSZ-9016. 6µg of this DNA along with 0.6 ug of pX8TAT, a mammalian expression vector which places the trans-activating protein (TAT) of HIV under the control of the SV40 early promoter, was transfected into COS-7 cells by the cationic-liposome method. Cells were harvested 48 hours later and lysed in detergent buffer (25 mM HEPES pH 7, 1% Triton-X-100, 1mM EDTA, 2mM DTT, 10 ug/ml aprotinin, 10 ug/ml leupeptin, 10 ug/ml pepstatin, and 2 mM PMSF). Cell lysates were incubated with radiolabeled IL-1β precursor to measure ICE activity. Cleavage products of IL-1β were analyzed by immunoprecipitation with IL-1B antibody and fractionation on SDS polyacrylamide gels. The IL-1β precursor was cleaved to the mature, 17 kDa form by cells transfected with ICE cDNA, but not by cells transfected with the expression plasmid alone. […] The substrate specificity of the expressed ICE activity was verified by incubating lysates with an IL-1β precursor cleavage site mutant (Ala^116) which cannot be cleaved by ICE. […]
# ICE [2] = molecular target: T1, ICE; assay: Inhibition of ICE by mechanism based thiol protease inhibitors (diazomethyl ketone, peptide aldehydes); type: biochemical; set-up: endogenous in cells; host or cells: THP.1 cells (or human peripheral blood monocytes); cytosolic extract, ammonium sulfate, DEAE, sulfopropyl cation exchange; settings: relative to Ac-Tyr-Val-Ala-Asp-CHO
# Source text: Characterization of ICE in terms of protease class was ultimately accomplished by the synthesis of two types of mechanism based thiol protease inhibitors, a diazomethyl ketone and a peptide aldehyde, both constructed from the Ac-Tyr-Val-Ala-Asp peptide. The peptidyl diazomethyl ketone (Ac-Tyr-Val-Ala-Asp-CHN2) and the peptide aldehyde (Ac-Tyr-Val-Ala-Asp-CHO) were both synthesized as described in an accompanying patent. […] However, the specificity of action on ICE has been determined by synthesis of a chemically similar peptide aldehyde, Ac-Tyr(dAla)-Val-Ala-Asp-CHO and tested for its ability to inhibit ICE in a competitive and reversible manner.
# ICE [3] = molecular target: T1, ICE
# Description: Using 14C-iodoacetate as the alkylating reagent a similar protocol was used to identify proteins that could be labeled in the presence or absence of 200 x Km substrate. […] ICE and 100 mM 14-C-iodoacetate were incubated in the presence (+S) or absence (-S) of 2.8 mM Ac-Tyr-Val-Ala-Asp-AMC and incubated for 1 hour. At 1 hour the reaction is quenched by the addition of 10 mM unlabeled iodoacetate and 10 mM DTT. Aliquots of the reaction were analyzed by SDS-PAGE followed by coomassie blue staining or autoradiography.
# ICE [4] = molecular target: T1, ICE; assay: Discontinuous kinetic assay of ICE with P14mer as substrate; type: biochemical; set-up: endogenous in cells; host or cells: THP.1 cells, S-300 (300,000 x g) cytosolic supernatant
# Description: Proteolytic cleavage of peptide substrates from Example 12 was carried out in the following manner. Samples of peptides were prepared in dimethyl sulfoxide at a concentration of 10 mM. The enzyme used in these studies was purified through sulfopropyl cation exhange chromatography. Reaction mixtures contained approximately 0.2 mg/ml enzyme, 0.2 mM peptide, 10% sucrose, 0.1% CHAPS (3-[(3-cholamidopropyl)dimethyl-ammonio]-1-propansulfon at), 10 mM HEPES (N-2-hydroxyethylpiperazine-N'-2-ethanesulfonic Acid), pH 7.5 in a 50 ul reaction volume. After incubation at 25 degrees for variable lengths of time, reactions were quenched with the addition of 450 ul 0.1% trifluoroacetic acid. The samples were analyzed by reverse-phase high performance liquid chromatography using a Vydac C-18 column (4.6 mm x 25 cm, 5 um particle size, 300 pore size) equilibrated with 5% acetonitrile, 0.1% trifluoroacetic acid at a flow rate of 1 ml/min. Peptides were eluted using a 10 min linear gradient of 5 to 30% acetonitrile and quantitated by monitoring the column effluent at 280 nm. Under these conditions substrate and tyrosine-containing product were separated with baseline resolution in every case. The identity of cleavage products was confirmed using peptide standards.
# The data in Table 3 was generated using partially purified enzyme or THP-1 […] and the gel-based cleavage assay as an indicator of ICE activity. This has been verified and extended using the P14mer assay as well as Ac-Tyr-Val-Ala-Asp-AMC as substrates. The only exception to the results of this table came when 1,10 phenanthroline (OP) was tested as an inhibitor. […] The rate constant (8 x 10-2 s-1 M-1) for inactivation is slow and it is not possible to reconstitute ICE activity by addition of ZnC12 following treatment with the chelator. […] The data is not consistent with the hypothesis that ICE is a metalloprotease.
# ICE [5] = molecular target: T1, ICE; assay: Size exclusion chromatography (TSK G2000) of GSSG or cystamine treated ICE; set-up: endogenous in cells; host or cells: THP.1 cells, S-300 (300,000 x g) cytosolic supernatant; settings: concentrated ICE pretreated 24 hrs, TSK G2000 column
# ICE [6] = molecular target: T1, ICE; assay: Mixed disulfide treatment of ICE, continuous fluorometric assay, DTT reversal and dilution stability; type: biochemical; set-up: endogenous in cells; host or cells: THP.1 cells, S-300 (300,000 x g) cytosolic supernatant
compound,measurement,setting,value
PMSF,Inhibition,ICE [1],-
O=C1C=CC(=O)N1c1ccccc1 [N-phenyl maleimide],Inhibition,ICE [1]; Conc. 1 mM,+
NC(=O)CI [Iodoacetamide],Inhibition,ICE [1],+
"CC(=O)N[C@@H](Cc1ccc(O)cc1)C(=O)N[C@H](C(=O)N[C@@H](C)C(=O)N[C@H](C=O)CC(=O)O)C(C)C [L-709,049]",inhibition of IL-1β precursor cleavage to the mature 17 kDa form,recombinant ICE,completely inhibited
O=C(O)CN(CCN(CC(=O)O)CC(=O)O)CC(=O)O [EDTA],Inhibition,ICE [1]; Conc. 50 mM,-
Ac-Tyr(dAla)-Val-Ala-Asp-CHO,less potent at inhibiting ICE activity,ICE [2],300 fold
O=C(O)CI [Iodoacetic acid],rate constant for inactivation of ICE,ICE [3],24 M⁻¹ s⁻¹
same,half-time of inhibition,"ICE [3]; 100 mM iodoacetate, substrate at 1 * Km",9.13 min
same,ICE inactivated,"ICE [3]; 100 mM radiolabeled iodoacetate, 2.8 mM Ac-Tyr-Val-Ala-Asp-AMC (200 x Km) included",< 2%
same,Inhibition,ICE [1],+
"c1cnc2c(c1)ccc1cccnc12 [1,10-phenanthroline]",inhibition of ICE activity,ICE [4]; P14mer as substrate,can inhibit ICE activity in a time and concentration dependant manner
same,increase in the rate at which ICE is inhibited,ICE [4]; addition of 10 mM CuSO4 to assay containing 1.0 mM OP,17 fold
same,inhibition of ICE on co-treatment with two metal chelators,ICE [4]; co-treatment with EDTA and OP,did not result in an inhibition of ICE
same,inhibition of ICE activity in the gel based cleavage assay,ICE [1],did not inhibit
same,Inhibition,ICE [1]; Conc. 10 mM,-
CC(C)CC(NC(=O)C1OC1C(=O)O)C(=O)NCCCCNC(=N)N (stereo not shown) [Compound E-64],Inhibition,ICE [1]; Conc. 1 mM,-
NCCSSCCN [Cystamine],apparent Mr of treated enzyme,ICE [5],"22,000"
same,half-time of time dependant decrease in activity,ICE [6]; 5 mM cystamine,19 min
same,enzyme activity recovered,"ICE [6]; addition of DTT after the inactivation plateau, 5 mM cystamine",23%
same,recovery of activity,"ICE [6]; concentrated ICE (3 units/ml), 5 mM cystamine, 3 day equilibration at 4 °C, then DTT",Complete recovery of activity
same,stabilization of ICE activity,ICE [6]; upon dilution of treated enzyme,did not appear to stabilize ICE activity
same,Inhibition,ICE [1]; Conc. 1 mM,+
CC(=O)N[C@@H](CC(C)C)C(=O)N[C@@H](CC(C)C)C(=O)N[C@H](C=O)CCCNC(=N)N [Leupeptin],Inhibition,ICE [1],-
O=C(O)CN(CCOCCOCCN(CC(=O)O)CC(=O)O)CC(=O)O [EGTA],Inhibition,ICE [1]; Conc. 10 mM,-
"CC(C)CC(=O)N[C@H](C(=O)N[C@H](C(=O)N[C@@H](CC(C)C)[C@@H](O)CC(=O)N[C@@H](C)C(=O)N[C@@H](CC(C)C)[C@@H](O)CC(=O)O)C(C)C)C(C)C [Chloromethyl ketonePepstatin, Pepstatin] (Isovaleryl-VV[Sta]A[Sta]-OH)",Inhibition,ICE [1]; Conc. 100 µM,-
Cc1ccc(S(=O)(=O)N[C@@H](CCCCN)C(=O)CCl)cc1 [TLCK],Inhibition,ICE [1],+
Cc1ccc(S(=O)(=O)N[C@@H](Cc2ccccc2)C(=O)CCl)cc1 [TPCK],Inhibition,ICE [1],+
CCN1C(=O)C=CC1=O [N-ethyl maleimide],Inhibition,ICE [1],+
